pIC50: −log10 of the molar value.

This test has as its system human mixed lymphocyte reaction (MLR). The test is described as follows: human mixed lymphocyte reaction (MLR) assay. The class given is cell-based. To be noted: immunosuppressant activity, Table 1. The procedure: The immunosuppressant activity of the compounds of the present invention was determined using the human mixed lymphocyte reaction (MLR) assay described by Kino, T. et al. in Transplantation Proceedings, XIX(5):36-39,Suppl. 6 (1987).

On to `CC[C@@H]1/C=C(\C)C[C@H](C)C[C@H](OC)[C@H]2O[C@@](O)(C(=O)C(=O)N3CCCC[C@H]3C(=O)O[C@H](/C(C)=C/[C@@H](CC=NN(C)C)CCC#N)[C@H](C)[C@@H](O)CC1=O)[C@H](C)C[C@@H]2OC` [Example 417], for which the pIC50 was above 6.00. The compound `CC[C@@H]1/C=C(\C)C[C@H](C)C[C@H](OC)[C@H]2O[C@@](O)(C(=O)C(=O)N3CCCC[C@H]3C(=O)O[C@H](/C(C)=C/[C@@H](CC=NOCC(=O)O)CCC#N)[C@H](C)[C@@H](O)CC1=O)[C@H](C)C[C@@H]2OC` [Example 421] had a pIC50 above 6.00.

Regarding `CC[C@@H]1/C=C(\C)C[C@H](C)C[C@H](OC)[C@H]2O[C@@](O)(C(=O)C(=O)N3CCCC[C@H]3C(=O)O[C@H](/C(C)=C/[C@@H](CCO)CCC#N)[C@H](C)[C@@H](O)CC1=O)[C@H](C)C[C@@H]2OC` [Example 425], the pIC50 was above 6.00. In turn, `CC[C@@H]1/C=C(\C)C[C@H](C)C[C@H](OC)[C@H]2O[C@@](O)(C(=O)C(=O)N3CCCC[C@H]3C(=O)O[C@H](/C(C)=C/[C@@H](CC=NO)CCC#N)[C@H](C)[C@@H](O)CC1=O)[C@H](C)C[C@@H]2OC` [Example 419] gave a negative logarithm of the IC50 (pIC50) above 6.00.

The values are drawn from patent US5561228A, “Macrocyclic immunomodulators” (Abbott Laboratories, priority 1994, dated 1996).
